The assay has as its target p300 HAT domain (residues 1287-1666) (Homo sapiens (Human), UniProt Q09472). Put plainly: p300 HAT SPA assay (scintillation proximity assay, acetylation of biotinylated H3(1-21) peptide). Format: biochemical. Particulars: average of at least 2 replicate titrations. As for the experimental part:
In a typical experiment the p300 HAT inhibitory activity of the compounds described herein was determined in accordance with the following experimental method.
The expressed protein was purified by Ni2+ affinity, followed by anion exchange chromatography. Appropriate fractions were pooled and buffer exchanged into 20 mM Hepes pH 7.5, 150 mM NaCl, and 1 mM TCEP.
35 μL of the reaction volume was transferred to a 384-well streptavidin FlashPlate (PerkinElmer) using a Bravo liquid handler (Velocity 11) and incubated for 1.5 hr at RT. […] Data were analyzed in Genedata to determine inhibitor IC50 values.
A general note: In a scintillation proximity assay essentially only radioactivity close to the scintillant gives light.
Chain of p300 HAT domain (residues 1287-1666) (Q09472 1287-1666): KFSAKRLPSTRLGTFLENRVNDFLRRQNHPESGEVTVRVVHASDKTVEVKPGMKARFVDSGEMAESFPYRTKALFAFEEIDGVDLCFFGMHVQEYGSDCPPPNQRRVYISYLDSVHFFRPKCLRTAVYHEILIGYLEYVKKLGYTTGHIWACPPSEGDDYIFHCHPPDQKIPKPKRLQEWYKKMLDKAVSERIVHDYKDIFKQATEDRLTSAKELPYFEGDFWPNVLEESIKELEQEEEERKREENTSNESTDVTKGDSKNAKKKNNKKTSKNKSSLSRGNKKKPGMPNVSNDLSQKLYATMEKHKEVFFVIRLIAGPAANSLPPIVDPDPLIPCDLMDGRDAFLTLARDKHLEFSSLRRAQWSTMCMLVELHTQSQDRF
In the case of `COC1CCN(c2ccc(NC(=O)C(NCCc3ccc(C#N)cc3)c3ccccc3)nc2)CC1` (single isomer, unassigned) [66 Isomer 1], the IC50 (in general, the midpoint of a concentration-inhibition curve) came out at 144 nM.
Under `N#Cc1ccc(CCNC(C(=O)Nc2ccn(-c3ccccc3)n2)c2ccccc2)cc1` (single isomer, unassigned) [50 Isomer 2] stands above 5000 nM; under `CC(CNC(C(=O)Nc1ccc(-c2cnn(CC(F)(F)F)c2)cn1)c1ccccc1)c1ccc(C#N)cc1` (single isomer, unassigned) [83 Isomer 3], 503 nM.
Under `Cn1cc(-c2ccc(NC(=O)C(NCCc3ccc(C#N)cc3F)c3ccccc3)nc2)cn1` (single isomer, unassigned) [29 Isomer 2] stands 2760 nM; under `O=C(Nc1ccc(-c2cccnn2)cc1)C(NCCc1ccc(Cl)cc1)c1ccccc1` (single isomer, unassigned) [10 Isomer 1], above 5000 nM; under `CC(CNC(C(=O)Nc1ccc(N2CCN(C)S2(=O)=O)cn1)c1ccccc1)c1ccc(C#N)cc1` (single isomer, unassigned) [108 Isomer 2], 23.7 nM.
As for `CC(CNC(C(=O)Nc1ccc(-c2cnn(C)c2)cc1)c1ccccc1)c1ccc(Cl)cc1` (single isomer, unassigned) [2 Isomer 3], it took 2740 nM to reach half-maximal inhibition (IC50).
Under `CNC(=O)Cn1cc(-c2ccc(NC(=O)C(NC[C@@H](C)c3ccc(C#N)cc3)c3ccccc3)nc2)cn1` (single isomer, unassigned) [146 Isomer 2] stands 7.76 nM; under `CC1CN(C)C(=O)CN1c1ccc(NC(=O)C(NC[C@@H](C)c2ccc(C#N)cc2)c2ccccc2)nc1` (single isomer, unassigned) [125 Isomer 2], above 2000 nM; under `Cn1cc(-c2ccc(NC(=O)C(NCCc3ccc(F)cc3)c3ccccc3)nc2)cn1` (single isomer, unassigned) [58 Isomer 2], above 5000 nM.
Under `Cn1cc(-c2ccc(NC(=O)C(NCCc3ccc(C#N)cc3)c3ccccc3)c(Cl)c2)cn1` (single isomer, unassigned) [26 Isomer 2] stands 1850 nM; under `COc1cc(-c2cnn(C)c2)ccc1NC(=O)C(NCCc1ccc(C#N)cc1)c1ccccc1` (single isomer, unassigned) [24 Isomer 2], 607 nM.
In the case of `CC(CNC(C(=O)Nc1ccc(-n2cnc(C(C)(C)C)c2)cn1)c1ccccc1)c1ccc(C#N)cc1` (single isomer, unassigned) [59 Isomer 3] it was above 2000 nM.
`CC(CNC(C(=O)Nc1ccc(N2CCN(CC(F)(F)F)C(=O)C2)cn1)c1ccccc1)c1ccc(C#N)cc1` (single isomer, unassigned) [103 Isomer 1] returned a half-inhibitory concentration (IC50) above 2000 nM.
Under `N#Cc1ccc(CCNC(C(=O)Nc2ccc(N3CCN(CC(F)(F)F)CC3)cn2)c2ccccc2)cc1` (single isomer, unassigned) [40 Isomer 2] stands above 5000 nM; under `Cc1ncc(-c2ccc(NC(=O)[C@H](NC[C@@H](C)c3ccc(C#N)cc3)c3ccccc3)nc2)cn1` (single isomer, unassigned; isomer 3) [6 Isomer 3], above 2000 nM; under `Cn1cc(-c2ccc(NC(=O)C(NCCn3cc(C#N)cn3)c3ccccc3)nc2)cn1` (single isomer, unassigned) [144 Isomer 1], above 2000 nM.
Take “(R, S)- and (S, S)-2-((2- (4- cyanophenyl)propyl)ami- no)-N-(5-(1,3-dimethyl- 1H-pyrazol-4-yl)pyridin- 2-yl)-2-phenylacetamide [113 Isomer 1]”: half-maximal inhibition (IC50) was put at 1800 nM.
Take `Cn1cc(-c2ccc(NC(=O)[C@@H](NCCc3ccc(C#N)cc3)c3ccccc3)cc2)cn1` (single isomer, unassigned) [1 Isomer 1]: the IC50 was determined as 4990 nM.
`Cn1cc(-c2ccc(NC(=O)C(NCCc3ccc(C#N)cc3)C3CCCCC3)nc2)cn1` (single isomer, unassigned) [89 Isomer 2] showed a 50% inhibitory concentration (IC50) of 1430 nM.
On to `C[C@H](CNC(C(=O)Nc1ccc(-c2cnn(CC(=O)N(C)C)c2)cn1)c1ccccc1)c1ccc(C#N)cc1` (single isomer, unassigned) [84 Isomer 1], for which the IC50 was found to be 395 nM.
Under `Cc1noc(C)c1-c1ccc(NC(=O)C(NC[C@@H](C)c2ccc(C#N)cc2)c2ccccc2)nc1` (single isomer, unassigned) [131 Isomer 1] stands 367 nM; under `Cc1ncc(C(C)CNC(C(=O)Nc2ccc(-c3cnn(C)c3)cn2)c2ccccc2)cn1` (single isomer, unassigned) [150 Isomer 3], above 2000 nM.
Turning to `N#Cc1ccc(CCNC(C(=O)Nc2ccc(N3CCC(F)(F)C3)cn2)c2ccccc2)cc1` (single isomer, unassigned) [77 Isomer 2], the 50% inhibitory concentration (IC50) was found to be 1980 nM.
In the case of `Cn1cc(-c2ccc(NC(=O)C(NCCc3ccc(Cl)cc3)c3ccccc3)nc2)cn1` (single isomer, unassigned) [55 Isomer 2] it was above 5000 nM; in that of `CN1CCN(c2ccc(NC(=O)C(NCCc3ccc(C#N)cc3)c3ccccc3)nc2)CCC1=O` (single isomer, unassigned) [71 Isomer 1], 86.9 nM.
Under `CC(CNC(C(=O)Nc1ccc(-c2cn[nH]c2)cn1)c1ccccc1)c1ccc(C#N)cc1` (single isomer, unassigned) [104 Isomer 1] stands 1370 nM; under `CC1(C)CCN(c2ccc(NC(=O)C(NCCc3ccc(C#N)cc3)c3ccccc3)nc2)CC1` (single isomer, unassigned) [65 Isomer 1], 477 nM; under `Cn1cc(-c2ccc(NC(=O)C(NCCc3ccc(C#N)cc3)c3cccc(Cl)c3)nc2)cn1` (single isomer, unassigned) [79 Isomer 2], 97.7 nM.
In the case of `Cn1cc(-c2ccc(NC(=O)C(NCCc3ccc(C#N)cc3C(F)(F)F)c3ccccc3)nc2)cn1` (single isomer, unassigned) [95 Isomer 1] it was 41.4 nM; in that of `Cc1cn(-c2ccc(NC(=O)[C@@H](NCCc3ccc(Cl)cc3)c3ccccc3)cc2)cn1` (single isomer, unassigned) [16 Isomer 2], above 5000 nM; in that of `Cc1cc(C#N)ccc1CCNC(C(=O)Nc1ccc(-c2cnn(C)c2)cn1)c1ccccc1` (single isomer, unassigned) [41 Isomer 1], 10.3 nM.
Take `Cn1cc(-c2ccc(NC(=O)C(NCCc3c(F)cc(C#N)cc3F)c3ccccc3)nc2)cn1` (racemic) [86 racemic, (S)- and (R)-2-((4-cyano-2,6-difluorophenEthyl)amino)-N-(5-(1-methyl-1H-pyrazol-4-yl)pyridin-2-yl)-2-phenylacetamide]: the half-maximal inhibitory concentration (IC50) turned out to be 169 nM.
Under `COc1ccccc1C(NCCc1ccc(C#N)cc1)C(=O)Nc1ccc(-c2cnn(C)c2)cn1` (single isomer, unassigned) [87 Isomer 2] stands above 2000 nM.
Under `O=C(Nc1ccc(-c2cccnn2)cc1)C(NCCc1ccc(Cl)cc1)c1ccccc1` (single isomer, unassigned) [10 Isomer 2] stands 580 nM.
With `Cc1nnc2n1CCN(c1ccc(NC(=O)C(NCCc3ccc(C#N)cc3)c3ccccc3)nc1)C2` (single isomer, unassigned) [60 Isomer 1], the IC50 worked out at 32.5 nM.
The compound `Cc1ncn(-c2ccc(NC(=O)C(NCCc3ccc(C#N)cc3)c3ccccc3)nc2)n1` (single isomer, unassigned) [73 Isomer 1] yielded an IC50 above 2000 nM.
Compound `Cc1ccc(-c2ccc(NC(=O)C(NCC(C)c3ccc(C#N)cc3)c3ccccc3)nc2)nn1` (single isomer, unassigned) [15 Isomer 2] gave an IC50 above 2000 nM.
Compound `CC(CNC(C(=O)Nc1ccc(N2CCN(C)S2(=O)=O)cn1)c1ccccc1)c1ccc(C#N)cc1` (single isomer, unassigned) [108 Isomer 1] gave an IC50 above 2000 nM.
In the case of `C[C@H](CNC(C(=O)Nc1ccc(-c2cnn(CC(N)=O)c2)cn1)c1ccccc1)c1ccc(C#N)cc1` (single isomer, unassigned) [147 Isomer 1] it was 1880 nM.
Under `Cn1cc(-c2ccc(NC(=O)C(NCCc3ccc(C#N)cc3)c3cccc(C#N)c3)nc2)cn1` (single isomer, unassigned) [116 Isomer 1] stands 443 nM; under `N#Cc1ccc(CCNC(C(=O)Nc2ccc(N3CCN(CC(F)(F)F)CC3)cn2)c2ccccc2)cc1` (single isomer, unassigned) [40 Isomer 1], 190 nM; under `Cc1cc(C#N)ccc1CCNC(C(=O)Nc1ccc(-c2cnn(C)c2)cn1)c1ccccc1` (single isomer, unassigned) [41 Isomer 2], 1790 nM.
Under `N#Cc1ccc(CCNC(C(=O)Nc2ccc(N3CCC(F)(F)C3)cn2)c2ccccc2)cc1` (single isomer, unassigned) [77 Isomer 1] stands 39.4 nM.
`CC(CNC(C(=O)Nc1ccc(-c2cn(C)nn2)cn1)c1ccccc1)c1ccc(C#N)cc1` (single isomer, unassigned) [100 Isomer 1] displayed an IC50 of 668 nM. Compared with the last compound, the IC50 is about 17-fold higher.
With `CC(CNC(C(=O)Nc1ccc(-c2cnn(C(C)(C)CO)c2)cn1)c1ccccc1)c1ccc(C#N)cc1` (single isomer, unassigned) [8 Isomer 2], the IC50 was found to be 1350 nM. Compared with the last compound, the IC50 is about 2-fold higher.
Under `CC(CNC(C(=O)Nc1ccc(-c2cnn(CC(F)(F)F)c2)cn1)c1ccccc1)c1ccc(C#N)cc1` (single isomer, unassigned) [83 Isomer 2] stands above 2000 nM.
In the case of `Cc1cn(-c2ccc(NC(=O)C(NCCc3ccc(C#N)cc3)c3ccccc3)nc2)nn1` (single isomer, unassigned) [78 Isomer 1] it was 296 nM; in that of `Cn1cc(-c2ccc(NC(=O)C(NCCc3ccc(C#N)cc3)c3ccccc3Cl)nc2)cn1` (single isomer, unassigned) [88 Isomer 1], 65.4 nM; in that of `CC(CNC(C(=O)Nc1ccc(-c2cnn(C)c2)cc1)c1ccccc1)c1ccc(C#N)cc1` (single isomer, unassigned) [82 Isomer 3], 604 nM.

Source of the values: US11274090B2, “P300/CBP HAT inhibitors” (Constellation Pharmaceuticals, Inc., priority 2018, dated 2022).
